The supplement of paper PMC10627819

Tests used:
S. aureus DSM 20231 [1] = experiment: Bliss interaction score (quartile over a dose matrix) (fitness difference); higher = more antagonism (negative = synergy)
How it was run: (§1)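 Quartiles of the Bliss score were taken over technical, biological and donor/recipient replicates. That score is observed fitness minus the product of the single-drug fitness values, which were inferred from combination data. Fitness itself is OD595 at entry into stationary phase divided by the plate's robust no-drug mean, with a cap at 1.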

S. aureus Newman [2] = experiment: as above
How it was run: as §1

B. subtilis 168 = experiment: as above
How it was run: as §1

S. pneumoniae D39V [3] = experiment: as above
How it was run: as §1

S. aureus DSM 20231 [4] = experiment: fitness (endpoint OD595 vs no drug) (fraction); higher = more growth
How it was run: (§2)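 Volumes were 30 µl per well, or 55 µl for S. pneumoniae, in 384-well plates inoculated at OD595 0.01. Media were TSB, LB Lennox or CY at 37 °C, and OD595 was read every 30 min for 14 h with first-reading background subtraction. Fitness is the ratio of optical density at stationary-phase entry to the robust mean of no-drug controls. That ratio is capped at 1.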

S. aureus Newman [5] = experiment: as above
How it was run: as §2

S. pneumoniae D39V [6] = experiment: as above
How it was run: as §2

[7] = first compound 0.125 µg/mL, partner 0.0625 µg/mL
[8] = first compound 0.125 µg/mL, partner 0.125 µg/mL
[9] = first compound 0.125 µg/mL, partner 0.25 µg/mL
[10] = first compound 0.125 µg/mL, partner 0.5 µg/mL, one replicate
[11] = first compound 0.125 µg/mL, partner 1 µg/mL, one replicate
[12] = first compound 0.25 µg/mL, partner 0.0625 µg/mL
[13] = first compound 0.25 µg/mL, partner 0.125 µg/mL
[14] = first compound 0.25 µg/mL, partner 0.25 µg/mL
[15] = first compound 0.25 µg/mL, partner 0.5 µg/mL, one replicate
[16] = first compound 0.25 µg/mL, partner 1 µg/mL, one replicate
[17] = first compound 0.5 µg/mL, partner 0.0625 µg/mL
[18] = first compound 0.5 µg/mL, partner 0.125 µg/mL
[19] = first compound 0.5 µg/mL, partner 0.25 µg/mL
[20] = first compound 0.5 µg/mL, partner 0.5 µg/mL, one replicate
[21] = first compound 0.5 µg/mL, partner 1 µg/mL, one replicate
[22] = first compound 0.125 µg/mL, partner 4 µg/mL
[23] = first compound 0.125 µg/mL, partner 8 µg/mL
[24] = first compound 0.125 µg/mL, partner 16 µg/mL
[25] = first compound 0.125 µg/mL, partner 32 µg/mL, one replicate
[26] = first compound 0.125 µg/mL, partner 64 µg/mL, one replicate
[27] = first compound 0.25 µg/mL, partner 4 µg/mL
[28] = first compound 0.25 µg/mL, partner 8 µg/mL
[29] = first compound 0.25 µg/mL, partner 16 µg/mL
[30] = first compound 0.25 µg/mL, partner 32 µg/mL, one replicate
[31] = first compound 0.25 µg/mL, partner 64 µg/mL, one replicate
[32] = first compound 0.5 µg/mL, partner 4 µg/mL
[33] = first compound 0.5 µg/mL, partner 8 µg/mL
[34] = first compound 0.5 µg/mL, partner 16 µg/mL
[35] = first compound 0.5 µg/mL, partner 32 µg/mL, one replicate
[36] = first compound 0.5 µg/mL, partner 64 µg/mL, one replicate
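Throughout, for Bliss interaction score (quartile over a dose matrix): first quartile when negative (synergy) and third quartile when positive (antagonism).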

CO/N=C(\C(=O)N[C@@H]1C(=O)N2C(C(=O)[O-])=C(C[N+]3(C)CCCC3)CS[C@H]12)c1csc(N)n1 [Cefepime] + CC1=C\[C@@H](O)CC(=O)Cc2nc(co2)C(=O)N2CCC=C2C(=O)O[C@H](C(C)C)[C@H](C)/C=C/C(=O)NC\C=C\1 [Virginiamycin M1]
Bliss interaction score (S. aureus DSM 20231 [1]): 0.0738
Bliss interaction score (S. aureus Newman [2]): -0.0566
Bliss interaction score (B. subtilis 168): 0.062
Bliss interaction score (S. pneumoniae D39V [3]): 0.0257
fitness (S. aureus DSM 20231 [4]; [7]): 0.97
fitness (S. aureus DSM 20231 [4]; [8]): 0.932
fitness (S. aureus DSM 20231 [4]; [9]): 0.895
fitness (S. aureus DSM 20231 [4]; [10]): 0.887
fitness (S. aureus DSM 20231 [4]; [11]): 0.86
fitness (S. aureus DSM 20231 [4]; [12]): 0.78
fitness (S. aureus DSM 20231 [4]; [13]): 0.902
fitness (S. aureus DSM 20231 [4]; [14]): 0.862
fitness (S. aureus DSM 20231 [4]; [15]): 0.892
fitness (S. aureus DSM 20231 [4]; [16]): 0.878
fitness (S. aureus DSM 20231 [4]; [17]): 0.832
fitness (S. aureus DSM 20231 [4]; [18]): 0.969
fitness (S. aureus DSM 20231 [4]; [19]): 0.904
fitness (S. aureus DSM 20231 [4]; [20]): 0.866
fitness (S. aureus DSM 20231 [4]; [21]): 0.948
fitness (S. aureus Newman [5]; [7]): 0.936
fitness (S. aureus Newman [5]; [8]): 0.932
fitness (S. aureus Newman [5]; [9]): 0.943
fitness (S. aureus Newman [5]; [10]): 0.865
fitness (S. aureus Newman [5]; [11]): 0.873
fitness (S. aureus Newman [5]; first compound 0.125 µg/mL, partner 2 µg/mL, one replicate): 0.888
fitness (S. aureus Newman [5]; [12]): 0.869
fitness (S. aureus Newman [5]; [13]): 0.848
fitness (S. aureus Newman [5]; [14]): 0.863
fitness (S. aureus Newman [5]; [15]): 0.819
fitness (S. aureus Newman [5]; [16]): 0.916
fitness (S. aureus Newman [5]; first compound 0.25 µg/mL, partner 2 µg/mL, one replicate): 0.798
fitness (S. aureus Newman [5]; [17]): 0.768
fitness (S. aureus Newman [5]; [18]): 0.792
fitness (S. aureus Newman [5]; [19]): 0.775
fitness (S. aureus Newman [5]; [20]): 0.732
fitness (S. aureus Newman [5]; [21]): 0.768
fitness (S. aureus Newman [5]; first compound 0.5 µg/mL, partner 2 µg/mL, one replicate): 0.706
fitness (S. pneumoniae D39V [6]; first compound 0.007 µg/mL, partner 0.5 µg/mL): ≥ 1
fitness (S. pneumoniae D39V [6]; first compound 0.007 µg/mL, partner 1 µg/mL): ≥ 1
fitness (S. pneumoniae D39V [6]; first compound 0.007 µg/mL, partner 2 µg/mL): 0.992
fitness (S. pneumoniae D39V [6]; first compound 0.0078 µg/mL, partner 0.15 µg/mL, one replicate): ≥ 1
fitness (S. pneumoniae D39V [6]; first compound 0.0078 µg/mL, partner 0.3 µg/mL, one replicate): ≥ 1
fitness (S. pneumoniae D39V [6]; first compound 0.0078 µg/mL, partner 0.5 µg/mL, one replicate): ≥ 1
fitness (S. pneumoniae D39V [6]; first compound 0.0078 µg/mL, partner 1 µg/mL, one replicate): 0.958
fitness (S. pneumoniae D39V [6]; first compound 0.0078 µg/mL, partner 2 µg/mL): 0.958
fitness (S. pneumoniae D39V [6]; first compound 0.014 µg/mL, partner 0.5 µg/mL): ≥ 1
fitness (S. pneumoniae D39V [6]; first compound 0.014 µg/mL, partner 1 µg/mL): ≥ 1
fitness (S. pneumoniae D39V [6]; first compound 0.014 µg/mL, partner 2 µg/mL): ≥ 1
fitness (S. pneumoniae D39V [6]; first compound 0.0155 µg/mL, partner 0.15 µg/mL, one replicate): ≥ 1
fitness (S. pneumoniae D39V [6]; first compound 0.0155 µg/mL, partner 0.3 µg/mL, one replicate): ≥ 1
fitness (S. pneumoniae D39V [6]; first compound 0.0155 µg/mL, partner 0.5 µg/mL, one replicate): 0.948
fitness (S. pneumoniae D39V [6]; first compound 0.0155 µg/mL, partner 1 µg/mL, one replicate): 0.962
fitness (S. pneumoniae D39V [6]; first compound 0.0155 µg/mL, partner 2 µg/mL): 0.946
fitness (S. pneumoniae D39V [6]; first compound 0.028 µg/mL, partner 0.5 µg/mL): 0.979
fitness (S. pneumoniae D39V [6]; first compound 0.028 µg/mL, partner 1 µg/mL): 0.956
fitness (S. pneumoniae D39V [6]; first compound 0.028 µg/mL, partner 2 µg/mL): 0.969
fitness (S. pneumoniae D39V [6]; first compound 0.031 µg/mL, partner 0.15 µg/mL, one replicate): ≥ 1
fitness (S. pneumoniae D39V [6]; first compound 0.031 µg/mL, partner 0.3 µg/mL, one replicate): 0.963
fitness (S. pneumoniae D39V [6]; first compound 0.031 µg/mL, partner 0.5 µg/mL, one replicate): 0.782
fitness (S. pneumoniae D39V [6]; first compound 0.031 µg/mL, partner 1 µg/mL, one replicate): 0.686
fitness (S. pneumoniae D39V [6]; first compound 0.031 µg/mL, partner 2 µg/mL): 0.851

CO/N=C(\C(=O)N[C@@H]1C(=O)N2C(C(=O)[O-])=C(C[N+]3(C)CCCC3)CS[C@H]12)c1csc(N)n1 [Cefepime] + CN[C@@H]1[C@H](O)[C@H](NC)[C@H]2O[C@@]3(O)C(=O)C[C@@H](C)O[C@H]3O[C@@H]2[C@H]1O [Spectinomycin]
Bliss interaction score (S. aureus DSM 20231 [1]): -0.0966
Bliss interaction score (S. aureus Newman [2]): -0.0659
Bliss interaction score (B. subtilis 168): -0.0538
Bliss interaction score (S. pneumoniae D39V [3]): 0.147
fitness (S. aureus DSM 20231 [4]; [22]): 0.755
fitness (S. aureus DSM 20231 [4]; [23]): 0.865
fitness (S. aureus DSM 20231 [4]; [24]): 0.806
fitness (S. aureus DSM 20231 [4]; [25]): 0.736
fitness (S. aureus DSM 20231 [4]; [26]): 0.0956
fitness (S. aureus DSM 20231 [4]; [27]): 0.729
fitness (S. aureus DSM 20231 [4]; [28]): 0.849
fitness (S. aureus DSM 20231 [4]; [29]): 0.764
fitness (S. aureus DSM 20231 [4]; [30]): 0.669
fitness (S. aureus DSM 20231 [4]; [31]): 0.0736
fitness (S. aureus DSM 20231 [4]; [32]): 0.851
fitness (S. aureus DSM 20231 [4]; [33]): 0.861
fitness (S. aureus DSM 20231 [4]; [34]): 0.778
fitness (S. aureus DSM 20231 [4]; [35]): 0.647
fitness (S. aureus DSM 20231 [4]; [36]): 0.0704
fitness (S. aureus Newman [5]; [22]): 0.835
fitness (S. aureus Newman [5]; [23]): 0.864
fitness (S. aureus Newman [5]; [24]): 0.847
fitness (S. aureus Newman [5]; [25]): 0.418
fitness (S. aureus Newman [5]; [26]): 0.0932
fitness (S. aureus Newman [5]; [27]): 0.809
fitness (S. aureus Newman [5]; [28]): 0.805
fitness (S. aureus Newman [5]; [29]): 0.766
fitness (S. aureus Newman [5]; [30]): 0.372
fitness (S. aureus Newman [5]; [31]): 0.0802
fitness (S. aureus Newman [5]; [32]): 0.724
fitness (S. aureus Newman [5]; [33]): 0.742
fitness (S. aureus Newman [5]; [34]): 0.682
fitness (S. aureus Newman [5]; [35]): 0.182
fitness (S. aureus Newman [5]; [36]): 0.0762
fitness (S. pneumoniae D39V [6]; first compound 0.007 µg/mL, partner 4 µg/mL): 0.935
fitness (S. pneumoniae D39V [6]; first compound 0.007 µg/mL, partner 8 µg/mL): 0.943
fitness (S. pneumoniae D39V [6]; first compound 0.007 µg/mL, partner 16 µg/mL): 0.916
fitness (S. pneumoniae D39V [6]; first compound 0.0078 µg/mL, partner 4 µg/mL, one replicate): ≥ 1
fitness (S. pneumoniae D39V [6]; first compound 0.0078 µg/mL, partner 8 µg/mL, one replicate): 0.999
fitness (S. pneumoniae D39V [6]; first compound 0.014 µg/mL, partner 4 µg/mL): 0.935
fitness (S. pneumoniae D39V [6]; first compound 0.014 µg/mL, partner 8 µg/mL): 0.974
fitness (S. pneumoniae D39V [6]; first compound 0.014 µg/mL, partner 16 µg/mL): 0.918
fitness (S. pneumoniae D39V [6]; first compound 0.0155 µg/mL, partner 4 µg/mL, one replicate): 0.988
fitness (S. pneumoniae D39V [6]; first compound 0.0155 µg/mL, partner 8 µg/mL, one replicate): ≥ 1
fitness (S. pneumoniae D39V [6]; first compound 0.028 µg/mL, partner 4 µg/mL): 0.877
fitness (S. pneumoniae D39V [6]; first compound 0.028 µg/mL, partner 8 µg/mL): 0.873
fitness (S. pneumoniae D39V [6]; first compound 0.028 µg/mL, partner 16 µg/mL): 0.876
fitness (S. pneumoniae D39V [6]; first compound 0.031 µg/mL, partner 4 µg/mL, one replicate): 0.577
fitness (S. pneumoniae D39V [6]; first compound 0.031 µg/mL, partner 8 µg/mL, one replicate): 0.716
